The target of this assay is T1, human TLR7 (Homo sapiens, UniProt Q9NYK1).
T1 sequence (Q9NYK1 27-1049): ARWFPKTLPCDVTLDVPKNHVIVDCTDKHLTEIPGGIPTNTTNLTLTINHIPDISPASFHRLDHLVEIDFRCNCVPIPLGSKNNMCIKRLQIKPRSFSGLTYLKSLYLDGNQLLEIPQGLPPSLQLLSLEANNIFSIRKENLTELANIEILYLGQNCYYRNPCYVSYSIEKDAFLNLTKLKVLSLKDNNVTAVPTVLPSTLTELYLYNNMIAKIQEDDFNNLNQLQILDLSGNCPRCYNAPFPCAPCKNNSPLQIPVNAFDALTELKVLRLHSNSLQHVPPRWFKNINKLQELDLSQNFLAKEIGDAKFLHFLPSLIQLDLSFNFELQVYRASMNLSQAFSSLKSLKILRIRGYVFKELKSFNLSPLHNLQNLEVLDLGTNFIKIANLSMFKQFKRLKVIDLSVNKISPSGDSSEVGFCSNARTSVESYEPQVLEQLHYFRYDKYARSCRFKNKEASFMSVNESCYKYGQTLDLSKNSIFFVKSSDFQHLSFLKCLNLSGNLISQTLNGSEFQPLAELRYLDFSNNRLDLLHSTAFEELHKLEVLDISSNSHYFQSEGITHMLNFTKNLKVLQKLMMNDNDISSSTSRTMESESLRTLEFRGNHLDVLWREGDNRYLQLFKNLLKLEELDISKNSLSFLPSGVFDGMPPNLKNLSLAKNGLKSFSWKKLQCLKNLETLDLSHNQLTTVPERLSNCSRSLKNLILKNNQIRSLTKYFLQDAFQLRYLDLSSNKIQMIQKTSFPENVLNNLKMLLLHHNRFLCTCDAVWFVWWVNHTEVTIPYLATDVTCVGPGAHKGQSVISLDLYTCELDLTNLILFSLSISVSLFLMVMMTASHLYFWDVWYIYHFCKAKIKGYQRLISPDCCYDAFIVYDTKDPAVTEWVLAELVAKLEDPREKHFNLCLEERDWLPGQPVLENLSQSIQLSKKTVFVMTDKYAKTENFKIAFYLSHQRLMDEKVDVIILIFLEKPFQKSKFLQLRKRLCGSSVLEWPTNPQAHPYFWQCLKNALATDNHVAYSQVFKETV
Kind of assay: HEK293-Blue-hTLR-7 cells assay (SEAP reporter, R848 stimulation). Type of assay: cell-based. As to conditions: HEK293-Blue-hTLR7 cells, R848 ligand, 20 hrs incubation, antagonist. Here is the method:
The following tests were carried out in order to determine the activity of the compounds of formula (I) in HEK293-Blue-hTLR-7/8/9 cells assay.
HEK293-Blue-hTLR-7 Cells Assay:
A stable HEK293-Blue-hTLR-7 cell line was purchased from InvivoGen (Cat. #: hkb-htlr7, San Diego, Calif., USA). These cells were originally designed for studying the stimulation of human TLR7 by monitoring the activation of NF-κB. A SEAP (secreted embryonic alkaline phosphatase) reporter gene was placed under the control of the IFN-β minimal promoter fused to five NF-κB and AP-1-binding sites. The SEAP was induced by activating NF-κB and AP-1 via stimulating HEK-Blue hTLR7 cells with TLR7 ligands. Therefore the reporter expression was declined by TLR7 antagonist under the stimulation of a ligand, such as R848 (Resiquimod), for incubation of 20 hrs. The cell culture supernatant SEAP reporter activity was determined using QUANTI-Blue™ kit (Cat. #: rep-qb1, Invivogen, San Diego, Calif., USA) at a wavelength of 640 nm, a detection medium that turns purple or blue in the presence of alkaline phosphatase.
HEK293-Blue-hTLR7 cells were incubated at a density of 250,000˜450,000 cells/mL in a volume of 170 μL in a 96-well plate in Dulbecco's Modified Eagle's medium (DMEM) containing 4.5 g/L glucose, 50 U/mL penicillin, […], […], 2 mM L-glutamine, 10% (v/v) heat-inactivated fetal bovine serum with addition of 20 μL test compound in a serial dilution in the presence of final DMSO at 1% and 10 μL of 20 uM R848 in above DMEM, perform incubation under 37° C. in a CO2 incubator for 20 hrs. Then 20 μL of the supernatant from each well was incubated with 180 μL Quanti-blue substrate solution at 37° C. for 2 hrs and the absorbance was read at 620˜655 nm using a spectrophotometer. The signalling pathway that TLR7 activation leads to downstream NF-κB activation has been widely accepted, and therefore similar reporter assay was modified for evaluating TLR7 antagonist.

Molecules are shown by their SMILES.

Our source for the IC50 values is patent US11639352B2, “Benzothiazole compounds for the treatment of autoimmune diseases” (Hoffmann-La Roche Inc., priority 2018, dated 2023).

In turn, `C[C@@H]1CN(c2ccc(C#N)c3ncsc23)C[C@H](C(=O)NCC2CN(C)CCO2)O1` (stereo partly drawn) [Example 12, (2R,6R)-4-(4-cyano-1,3-benzothiazol-7-yl)-6-methyl-N-[(4-methylmorpholin-2-yl)methyl]morpholine-2-carboxamide] returned an IC50 of 4 nM.
Regarding `C[C@@H]1CN(c2ccc(C#N)c3ncsc23)C[C@H](CN2CCC(N3CCCCC3)CC2)O1` [Example 7, 7-[(2R,6S)-2-methyl-6-[[4-(1-piperidyl)-1-piperidyl]methyl]morpholin-4-yl]-1,3-benzothiazole-4-carbonitrile], inhibition was half-maximal at 13 nM (IC50). Against the preceding compound, the IC50 is about 3.2-fold higher.
`C[C@@H]1CN(c2ccc(C#N)c3ncsc23)C[C@H](CN2CC3(CCCNC3)C2)O1` [Example 4, 7-[(2S,6R)-2-(2,8-diazaspiro[3.5]nonan-2-ylmethyl)-6-methyl-morpholin-4-yl]-1,3-benzothiazole-4-carbonitrile] showed an IC50 of 12 nM.
Consider `C[C@@H]1CN(c2ccc(C#N)c3ncsc23)C[C@H](CN2CCC(N)CC2)O1` [Example 2, 7-[(2S,6R)-2-[(4-amino-1-piperidyl)methyl]-6-methyl-morpholin-4-yl]-1,3-benzothiazole-4-carbonitrile], for which the IC50 came to 26 nM. This IC50 lies about 2.2-fold higher than the previous one.
Compound `C[C@@H]1CN(c2ccc(C#N)c3ncsc23)C[C@H](CN2CCC3(CCNC3)CC2)O1` [Example 6, 7-[(2S,6R)-2-(2,8-diazaspiro[4.5]decan-8-ylmethyl)-6-methyl-morpholin-4-yl]-1,3-benzothiazole-4-carbonitrile] registered an IC50 of 41 nM.
Compound `C[C@@H]1CN(c2ccc(C#N)c3ncsc23)C[C@H](C(=O)NC2CCN(C)CC2)O1` [Example 11, (2R,6R)-4-(4-cyano-1,3-benzothiazol-7-yl)-6-methyl-N-(1-methyl-4-piperidyl)morpholine-2-carboxamide] yielded an IC50 of 5 nM.
`C[C@@H]1CN(c2ccc(C#N)c3ncsc23)C[C@H](CN2[C@@H]3CC[C@H]2C[C@@H](N)C3)O1` [Example 8, Endo-7-[(2S,6R)-2-[[(1R,5S)-3-amino-8-azabicyclo[3.2.1]octan-8-yl]methyl]-6-methyl-morpholin-4-yl]-1,3-benzothiazole-4-carbonitrile]: 16 nM corresponded to half-maximal inhibition (IC50). Against the preceding compound, the IC50 is about 3.2-fold higher.
In turn, `C[C@@H]1CN(c2ccc(C#N)c3ncsc23)C[C@H](CN2CCC3(CCCNC3)CC2)O1` [Example 3, 7-[(2S,6R)-2-(2,9-diazaspiro[5.5]undecan-9-ylmethyl)-6-methyl-morpholin-4-yl]-1,3-benzothiazole-4-carbonitrile] returned an IC50 of 19 nM.
`C[C@@H]1CN(c2ccc(C#N)c3ncsc23)C[C@H](CN2CCC3(CCNCC3)CC2)O1` [Example 5, 7-[(2S,6R)-2-(3,9-diazaspiro[5.5]undecan-3-ylmethyl)-6-methyl-morpholin-4-yl]-1,3-benzothiazole-4-carbonitrile] yielded an IC50 of 48 nM.
Regarding `C[C@@H]1CN(c2ccc(C#N)c3ncsc23)C[C@H](CN2CCC3(CCCN(C)C3)CC2)O1` [Example 10, 7-[(2R,6S)-2-methyl-6-[(2-methyl-2,9-diazaspiro[5.5]undecan-9-yl)methyl]morpholin-4-yl]-1,3-benzothiazole-4-carbonitrile], the IC50 came to 15 nM.
As for `C[C@@H]1CN(c2ccc(C#N)c3ncsc23)C[C@H](CN2CCC3(CCCNC3)C2)O1` (stereo partly drawn) [Example 1, 7-[(2S,6R)-2-(2,9-diazaspiro[4.5]decan-2-ylmethyl)-6-methyl-morpholin-4-yl]-1,3-benzothiazole-4-carbonitrile], the IC50 came to 11 nM.
To `C[C@@H]1CN(c2ccc(C#N)c3ncsc23)C[C@H](CN2[C@@H]3CC[C@H]2C[C@H](N)C3)O1` [Example 9, Exo-7-[(2S,6R)-2-[[(1S,5R)-3-amino-8-azabicyclo[3.2.1]octan-8-yl]methyl]-6-methyl-morpholin-4-yl]-1,3-benzothiazole-4-carbonitrile] belongs 45 nM.
